Experimental data taken from patent US9050286B2, “Use of peptidic vasopression receptor agonists” (Ferring B.V., priority 2007, dated 2015).
Bridge positions count the residues as written; N and C are the ends. Square brackets hold non-standard residues; d marks the D form. Peptide text beside a SMILES is read from it. Ala(cPent) = N[C@@H](CC1CCCC1)C(=O)O; Orn(iPr) = CC(C)NCCC[C@H](N)C(=O)O; Cha = N[C@@H](CC1CCCCC1)C(=O)O; Orn = NCCC[C@H](N)C(=O)O; Dab = NCC[C@H](N)C(=O)O; Ac4c = NC1(C(=O)O)CCC1

Target: T1, hV1a receptor (Homo sapiens, UniProt P37288)
T1 construct: expressed in transfected cells; host or cells: HEK-293
T1 sequence (P37288 whole entry): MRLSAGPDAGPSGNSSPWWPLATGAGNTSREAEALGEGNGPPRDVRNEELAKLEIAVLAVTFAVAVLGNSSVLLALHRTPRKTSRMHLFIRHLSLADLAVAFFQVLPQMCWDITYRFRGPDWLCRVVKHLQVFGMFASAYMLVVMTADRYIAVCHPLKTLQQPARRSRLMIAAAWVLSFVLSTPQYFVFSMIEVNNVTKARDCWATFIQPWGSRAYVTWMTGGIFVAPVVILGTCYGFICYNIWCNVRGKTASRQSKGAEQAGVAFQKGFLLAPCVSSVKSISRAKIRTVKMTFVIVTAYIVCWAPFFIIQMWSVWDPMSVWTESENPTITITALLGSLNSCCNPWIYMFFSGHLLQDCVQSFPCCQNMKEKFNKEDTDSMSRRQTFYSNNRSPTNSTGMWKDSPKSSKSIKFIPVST
Assay: hV1a receptor agonist transcriptional reporter (luciferase) assay in transiently transfected HEK-293 cells
Type: cell-based
Settings: agonist activity; HEK-293 cells transiently transfected with hV1a receptor and calcium-responsive luciferase reporter; 5 hours exposure; geometric mean of at least three independent experiments; read-out: EC50 (median effective concentration)
Method: Agonist activity of compounds on the hV1a receptor was determined in a transcriptional reporter assay by transiently transfecting a hV1a receptor expression DNA into HEK-293 cells in concert with a reporter DNA containing intracellular calcium responsive promoter elements regulating expression of firefly luciferase. See Boss, V., Talpade, D. J., Murphy, T. J. J. Biol. Chem. 1996, May 3; 271(18), 10429-10432 for further guidance on this assay. […] Arginine-vasopressin (AVP) was used as an internal control in each experiment, and compounds were tested in at least three independent experiments.
The results of the in vitro assays are depicted in table 1 supra. The EC50 value given is the geometric mean expressed in nanomol/L (nM). Selectivity values are given as EC50 ratios.

Compared with `CC[C@H](C)[C@@H]1NC(=O)[C@H](CC2CCCCC2)NC(=O)[C@@H](N)CSSC[C@@H](C(=O)N2CCC[C@H]2C(=O)N[C@@H](CCCNC(C)C)C(=O)NCC(N)=O)NC(=O)[C@H](CC(N)=O)NC(=O)[C@H](CC(N)=O)NC1=O` [Compound 4, [Cha^2, Asn^4, Orn (i-Pr)^8]VT] (H-C[Cha]INNCP[Orn(iPr)]G-NH2; disulfide 1-6), `CC[C@H](C)[C@@H]1NC(=O)[C@H](CC2CCCCC2)NC(=O)[C@@H](N)CSSC[C@@H](C(=O)N2CCC[C@H]2C(=O)N[C@@H](CCCN)C(=O)NCC(N)=O)NC(=O)[C@H](CC(N)=O)NC(=O)[C@H](CC(N)=O)NC1=O` [Compound 8] (H-C[Cha]INNCP[Orn]G-NH2; disulfide 1-6) is 14-fold lower in EC50: 10.7 nM for the first, 0.75 nM for the second. The second is the more potent here.

Going from `CC[C@H](C)[C@@H]1NC(=O)[C@H](CC2CCCCC2)NC(=O)[C@@H](N)CSSC[C@@H](C(=O)N2CCC[C@H]2C(=O)N[C@@H](CCN)C(=O)NCC(N)=O)NC(=O)[C@H](CC(N)=O)NC(=O)[C@H](CC(N)=O)NC1=O` [Compound 12] (H-C[Cha]INNCP[Dab]G-NH2; disulfide 1-6; N-terminus assumed) to `CC[C@H](C)[C@@H]1NC(=O)[C@H](CC2CCCC2)NC(=O)[C@@H](N)CSSC[C@@H](C(=O)N2CCC[C@H]2C(=O)N[C@@H](CCCN)C(=O)NCC(N)=O)NC(=O)[C@H](CC(N)=O)NC(=O)[C@H](CC(N)=O)NC1=O` [Compound 7] (H-C[Ala(cPent)]INNCP[Orn]G-NH2; disulfide 1-6), the EC50 rises from 2.28 nM to 7.7 nM (3.4-fold). The first is the more potent here.

Compared with `CC[C@H](C)[C@@H]1NC(=O)C2(CCC2)NC(=O)[C@@H](N)CSSC[C@@H](C(=O)N2CCC[C@H]2C(=O)N[C@@H](CCCN)C(=O)NCC(N)=O)NC(=O)[C@H](CC(N)=O)NC(=O)[C@H](CC(N)=O)NC1=O` [Compound 6] (H-C[Ac4c]INNCP[Orn]G-NH2; disulfide 1-6), `CC[C@H](C)[C@@H]1NC(=O)C2(CCC2)NC(=O)[C@@H](N)CSSC[C@@H](C(=O)N2CCC[C@H]2C(=O)N[C@@H](CCN)C(=O)NCC(N)=O)NC(=O)[C@H](CC(N)=O)NC(=O)[C@H](CC(N)=O)NC1=O` [Compound 9] (H-C[Ac4c]INNCP[Dab]G-NH2; disulfide 1-6; N-terminus assumed) is 1.9-fold higher in EC50: 7.93 nM for the first, 14.8 nM for the second. The first is the more potent here.
